Source: ChEMBL document CHEMBL2169821, “Design, synthesis, and evaluation of pH-dependent hydrolyzable emetine analogues as treatment for prostate cancer” (J Med Chem, 2012)
Calls of active or inactive are those of the source. No cut-off for these calls is given here.

Columns and labels:
[1] = Chemical stability of the compound in phosphate buffer up to 48 hrs at pH 5.5 by HPLC analysis; type: physicochemical; conditions: pH 5.5, 48 h
[2] = system: PC-3; assay: Cytotoxicity against human PC3 cells measured on day 5 by MTT assay; type: functional, cell-based
[3] = Chemical stability of the compound in phosphate buffer up to 48 hrs at pH 6.5 by HPLC analysis; type: physicochemical; conditions: pH 6.5, 48 h
[4] = system: PC-3; assay: Cytotoxicity against human PC3 cells measured on day 3 by MTT assay; type: functional, cell-based
[5] = system: LNCaP; assay: Cytotoxicity against human LNCAP cells measured on day 7 by MTT assay; type: functional, cell-based
[6] = system: PC-3; assay: Cytotoxicity against human PC3 cells measured on day 7 by MTT assay; type: functional, cell-based
[7] = Chemical stability of the compound in phosphate buffer up to 5 days at pH 7.4 by HPLC analysis; type: physicochemical; conditions: for Stability: buffer, pH 7.4, 120 h; for remaining at 120 h: phosphate buffer, pH 7.4, read-out: Stability
[8] = Prodrug activation in phosphate buffer assessed as emetine formation up to 48 hrs at pH 5.5 by HPLC analysis; conditions: pH 5.5, 48 h
[9] = system: Mus musculus; assay: Toxicity in Balb/c mouse assessed as change in body weight at 100 mg/kg, iv qd administered as bolus for 5 days measured within 48 hrs relative to control; type: organism-based; design: dose 100 mg/kg, route intravenous; conditions: in vivo
[10] = system: Mus musculus; assay: Toxicity in Balb/c mouse assessed as adverse effects at 100 mg/kg, iv qd administered as bolus for 5 days; type: organism-based; design: dose 100 mg/kg, route intravenous; conditions: in vivo, 120 h
[11] = system: Mus musculus; assay: Toxicity in Balb/c mouse assessed as weight loss at 33 mg/kg, iv qd administered as bolus for 5 days measured within 48 hrs relative to untreated control; type: organism-based; design: dose 33 mg/kg, route intravenous; conditions: in vivo
[12] = system: PC-3; assay: Ratio of compound IC50 to emetine IC50 for human PC3 cells measured on day 5 at pH 7.4 by MTT assay; type: functional
[13] = system: PC-3; assay: Ratio of compound IC50 to emetine IC50 for human PC3 cells measured on day 5 at pH <7 by MTT assay; type: functional
[14] = system: Mus musculus; assay: Toxicity in Balb/c mouse assessed as adverse effects at 100 mg/kg, iv qd administered as bolus for 5 days measured up to 3 weeks; type: organism-based; design: dose 100 mg/kg, route intravenous; conditions: in vivo
[15] = system: Mus musculus; assay: Toxicity in Balb/c mouse assessed as lethargy at 33 mg/kg, iv qd administered as bolus for 5 days measured within 48 hrs; type: organism-based; design: dose 33 mg/kg, route intravenous; conditions: in vivo
[16] = system: Mus musculus; assay: Toxicity in Balb/c mouse assessed as mortality at 33 mg/kg, iv qd administered as bolus for 5 days measured up to 5 days; type: organism-based; design: dose 33 mg/kg, route intravenous; conditions: in vivo, 120 h
[17] = system: Mus musculus; assay: Toxicity in Balb/c mouse assessed as weight loss at 33 mg/kg, iv qd administered as bolus for 5 days measured within 24 hrs (reference value: 1.7%); type: organism-based; design: dose 33 mg/kg, route intravenous; conditions: in vivo

SMILES | Stability [1] | Activity [2] | Stability [3] | Activity [4] | IC50 ([5]; Homo sapiens, LNCaP, 168 h) | IC50 ([6]; Homo sapiens, PC-3, 168 h) | also measured
CC[C@H]1CN2CCc3cc(OC)c(OC)cc3[C@@H]2C[C@@H]1C[C@@H]1c2cc(OC)c(OC)cc2CCN1C(=S)NCc1ccc(Cl)cc1 | Stable | Active | Stable | Active | 1590 nM | 2860 nM | –
CC[C@H]1CN2CCc3cc(OC)c(OC)cc3[C@@H]2C[C@@H]1C[C@@H]1c2cc(OC)c(OC)cc2CCN1C(=O)/C=C(/C)C(=O)O | – | – | – | – | – | – | Stability [7]: 100%; Drug metabolism [8]: Active; IC50 ([5]; lncap): 368 nM; IC50 ([6]; pc-3): 378 nM
CC[C@H]1CN2CCc3cc(OC)c(OC)cc3[C@@H]2C[C@@H]1C[C@@H]1c2cc(OC)c(OC)cc2CCN1C(=O)/C=C(/CC(=O)[O-])C(=O)[O-].[Na+].[Na+] | – | Active | – | Active | 5460 nM | 2890 nM | remaining at 120 h [7]: 100%; Drug metabolism [8]: Active
CC[C@H]1CN2CCc3cc(OC)c(OC)cc3[C@@H]2C[C@@H]1C[C@@H]1c2cc(OC)c(OC)cc2CCN1C(=S)SCc1ccccc1 | Stable | Active | Stable | Active | 1970 nM | 1560 nM | –
CC[C@H]1CN2CCc3cc(OC)c(OC)cc3[C@@H]2C[C@@H]1C[C@@H]1c2cc(OC)c(OC)cc2CCN1C(=S)NCc1ccc(OC)cc1 | Stable | Active | Stable | – | 3390 nM | 5000 nM | –
CC[C@H]1CN2CCc3cc(OC)c(OC)cc3[C@@H]2C[C@@H]1C[C@@H]1c2cc(OC)c(OC)cc2CCN1C(=S)[S-].[Na+] | – | Active | – | – | 79 nM | 87 nM | Activity [9]: Non-toxic; Activity [10]: Non-toxic; Activity [11]: 0.67%; Ratio IC50 [12]: 16.5; Ratio IC50 [13]: 1.9; remaining at 120 h [7]: 100%; Activity [14]: Non-toxic; Activity [15]: Non-toxic; Activity [16]: Non-toxic; Activity [17]: 2%
CC[C@H]1CN2CCc3cc(OC)c(OC)cc3[C@@H]2C[C@@H]1C[C@@H]1c2cc(OC)c(OC)cc2CCN1S(=O)(=O)c1ccc(OC)cc1 | Stable | Active | Stable | – | 3150 nM | 6080 nM | –
CC[C@H]1CN2CCc3cc(OC)c(OC)cc3[C@@H]2C[C@@H]1C[C@@H]1c2cc(OC)c(OC)cc2CCN1C(=O)/C=C\C(=O)O | – | – | – | – | – | – | Stability [7]: 100%; Drug metabolism [8]: Active; IC50 ([5]; lncap): 6780 nM; IC50 ([6]; pc-3): 5040 nM
CC[C@H]1CN2CCc3cc(OC)c(OC)cc3[C@@H]2C[C@@H]1C[C@@H]1c2cc(OC)c(OC)cc2CCN1C(=O)CCC(=O)O [listing 1 of 2 here] | – | – | – | – | 2450 nM | 2150 nM | –
CC[C@H]1CN2CCc3cc(OC)c(OC)cc3[C@@H]2C[C@@H]1C[C@@H]1c2cc(OC)c(OC)cc2CCN1C(=S)NCc1ccccc1 | Stable | Active | Stable | Active | 2060 nM | 6920 nM | –
CC[C@H]1CN2CCc3cc(OC)c(OC)cc3[C@@H]2C[C@@H]1C[C@@H]1c2cc(OC)c(OC)cc2CCN1C(=O)CCC(=O)O [listing 2 of 2 here] | – | – | – | – | – | – | IC50 ([5]; lncap): 2410 nM; IC50 ([6]; pc-3): 2100 nM
